In paper PMC12439480, “Dimeric CCK2R radiotheranostic tracers synergize with mTOR inhibition for enhanced tumor therapy” (Theranostics, 2025):
Numbered stars: 1 amine (or outer) side, 2 acyl side, 3 side chain; on linkers, the order of the positions; unused ones are H or OH. Square brackets hold non-standard residues; d marks the D form. Side chains are listed from the residue outwards. Peptide text beside a SMILES is read from it. * marks the point of attachment. DOTA = O=C(O)CN1CCN(CC(=O)O)CCN(CC(=O)*)CCN(CC(=O)O)CC1; d(γGlu) = O=C(O)[C@@H](CCC(=O)[*:2])N[*:1]; 1Nal = N[C@@H](Cc1cccc2ccccc12)C(=O)O; NMeNle = CCCC[C@H](NC)C(=O)O; PEG4 = NCCOCCOCCOCCOCCC(=O)O

Assay: Ex vivo biodistribution of 177Lu-labeled compound
Set-up: species or system BALB/c nude mice
Conditions: mouse, in vivo
Protocol: To evaluate the biodistribution of [^177Lu]Lu-DOTA-CCK2R-dimer, AR42J tumor-bearing mice received intravenous (i.v.) injections of 3.7 MBq (≈ 120 pmol) of [^177Lu]Lu-DOTA-CCK2R-dimer (dissolved in 200 μL of saline; n = 3/group), and Mice were sacrificed at 1, 4, 24, 48, 72, and 96 h post-injection. The tissues of interest were excised, weighed, and analyzed for radioactivity using a γ-counter.
All animal studies were approved by the Ethics Committee of Fudan University Shanghai Cancer Center (No. FUSCC-IACUC- S2023- 0003). Five-week-old female BALB/c nude mice were purchased from Shanghai SLAC Laboratory Animal
Company. To establish cell-derived xenograft (CDX) models, 1 × 10⁶ AR42J cells (100 μL) were subcutaneously inoculated into the right shoulder of each mouse. […]
Radioactivity levels were measured using a gamma counter, with decay correction applied based on the injection time. The percentage of injected dose per gram of tissue (%ID/g) was calculated for each time point. […]

## CCCC[C@@H](C(=O)N[C@@H](CC(=O)O)C(=O)N[C@@H](Cc1cccc2ccccc12)C(N)=O)N(C)C(=O)[C@H](Cc1c[nH]c2ccccc12)NC(=O)CCOCCOCCOCCOCCNC(=O)CC[C@@H](NC(=O)CC[C@H](NC(=O)CN1CCN(CC(=O)O)CCN(CC(=O)O)CCN(CC(=O)O)CC1)C(=O)N[C@H](CCC(=O)NCCOCCOCCOCCOCCC(=O)N[C@@H](Cc1c[nH]c2ccccc12)C(=O)N(C)[C@@H](CCCC)C(=O)N[C@@H](CC(=O)O)C(=O)N[C@@H](Cc1cccc2ccccc12)C(N)=O)C(=O)O)C(=O)O [[177Lu]Lu-DOTA-CCK2R-dimer, metal not drawn] ({DOTA}-E([d(γGlu)-PEG4-Trp-NMeNle-Asp-1Nal-NH2])[d(γGlu)][PEG4]W[NMeNle]D[1Nal]-NH2)
Bladder uptake
  tissue uptake at 48 h: 0.03 ± 0.01 %ID/g
  tissue uptake at 72 h: 0.06 ± 0.03 %ID/g
  tissue uptake at 96 h: 0.1 ± 0.05 %ID/g
Blood uptake
  tissue uptake at 1 h: 6.93 ± 1.84 %ID/g
  tissue uptake at 4 h: 1.19 ± 0.3 %ID/g
  tissue uptake at 24 h: 0.05 ± 0.01 %ID/g
  tissue uptake at 48 h: 0.02 ± 0.01 %ID/g
  tissue uptake at 72 h: 0.002 ± 0.0005 %ID/g
  tissue uptake at 96 h: 0.008 ± 0.007 %ID/g
Bone uptake
  tissue uptake at 1 h: 0.65 ± 0.27 %ID/g
  tissue uptake at 4 h: 0.35 ± 0.19 %ID/g
  tissue uptake at 24 h: 0.04 ± 0.02 %ID/g
  tissue uptake at 48 h: 0.004 ± 0.001 %ID/g
  tissue uptake at 72 h: 0.03 ± 0.02 %ID/g
  tissue uptake at 96 h: 0.02 ± 0.01 %ID/g
Brain uptake
  tissue uptake at 1 h: 0.14 ± 0.01 %ID/g
  tissue uptake at 4 h: 0.03 ± 0.01 %ID/g
  tissue uptake at 24 h: 0.003 ± 0.002 %ID/g
  tissue uptake at 48 h: 0.003 ± 0.002 %ID/g
  tissue uptake at 72 h: 0.004 ± 0.003 %ID/g
  tissue uptake at 96 h: 0.006 ± 0.002 %ID/g
Heart uptake
  tissue uptake at 1 h: 1.29 ± 0.41 %ID/g
  tissue uptake at 4 h: 0.67 ± 0.34 %ID/g
  tissue uptake at 24 h: 0.05 ± 0.03 %ID/g
  tissue uptake at 48 h: 0.02 ± 0.02 %ID/g
  tissue uptake at 72 h: 0.02 ± 0.008 %ID/g
  tissue uptake at 96 h: 0.03 ± 0.01 %ID/g
Kidney uptake
  tissue uptake at 1 h: 8.92 ± 1.05 %ID/g
  tissue uptake at 4 h: 6.79 ± 1.58 %ID/g
  tissue uptake at 24 h: 3.43 ± 0.84 %ID/g
  tissue uptake at 48 h: 1.59 ± 1 %ID/g
  tissue uptake at 72 h: 1.6 ± 0.39 %ID/g
  tissue uptake at 96 h: 1 ± 0.5 %ID/g
Large intestine uptake
  tissue uptake at 1 h: 1.14 ± 0.38 %ID/g
  tissue uptake at 4 h: 0.61 ± 0.03 %ID/g
  tissue uptake at 24 h: 0.07 ± 0.01 %ID/g
  tissue uptake at 48 h: 0.05 ± 0.02 %ID/g
  tissue uptake at 72 h: 0.04 ± 0.03 %ID/g
  tissue uptake at 96 h: 0.05 ± 0.03 %ID/g
Liver uptake
  tissue uptake at 1 h: 4.44 ± 1.8 %ID/g
  tissue uptake at 4 h: 3.42 ± 0.75 %ID/g
  tissue uptake at 24 h: 0.61 ± 0.11 %ID/g
  tissue uptake at 48 h: 0.58 ± 0.16 %ID/g
  tissue uptake at 72 h: 0.37 ± 0.05 %ID/g
  tissue uptake at 96 h: 0.42 ± 0.11 %ID/g
Lung uptake
  tissue uptake at 1 h: 2.4 ± 0.05 %ID/g
  tissue uptake at 4 h: 1.06 ± 0.39 %ID/g
  tissue uptake at 24 h: 0.04 ± 0.03 %ID/g
  tissue uptake at 48 h: 0.02 ± 0.01 %ID/g
  tissue uptake at 72 h: 0.01 ± 0.01 %ID/g
  tissue uptake at 96 h: 0.02 ± 0.005 %ID/g
Muscle uptake
  tissue uptake at 1 h: 0.36 ± 0.1 %ID/g
  tissue uptake at 4 h: 0.16 ± 0.17 %ID/g
  tissue uptake at 24 h: 0.01 ± 0.01 %ID/g
  tissue uptake at 48 h: 0.007 ± 0.003 %ID/g
  tissue uptake at 72 h: 0.007 ± 0.002 %ID/g
  tissue uptake at 96 h: 0.006 ± 0.004 %ID/g
Small intestine uptake
  tissue uptake at 1 h: 1.45 ± 0.39 %ID/g
  tissue uptake at 4 h: 0.58 ± 0.31 %ID/g
  tissue uptake at 24 h: 0.06 ± 0.04 %ID/g
  tissue uptake at 48 h: 0.06 ± 0.01 %ID/g
  tissue uptake at 72 h: 0.02 ± 0.01 %ID/g
  tissue uptake at 96 h: 0.04 ± 0.03 %ID/g
Spleen uptake
  tissue uptake at 1 h: 2.62 ± 1.02 %ID/g
  tissue uptake at 4 h: 2.23 ± 0.32 %ID/g
  tissue uptake at 24 h: 0.15 ± 0.08 %ID/g
  tissue uptake at 48 h: 0.02 ± 0.01 %ID/g
  tissue uptake at 72 h: 0.05 ± 0.03 %ID/g
  tissue uptake at 96 h: 0.15 ± 0.09 %ID/g
Stomach uptake
  tissue uptake at 1 h: 3.88 ± 0.66 %ID/g
  tissue uptake at 4 h: 3.05 ± 0.6 %ID/g
  tissue uptake at 24 h: 1.07 ± 0.28 %ID/g
  tissue uptake at 48 h: 1.04 ± 0.17 %ID/g
  tissue uptake at 72 h: 0.26 ± 0.11 %ID/g
  tissue uptake at 96 h: 0.24 ± 0.3 %ID/g
Tumor uptake
  tissue uptake at 1 h: 19.2 ± 8.43 %ID/g
  tissue uptake at 4 h: 14.7 ± 2.83 %ID/g
  tissue uptake at 24 h: 6.12 ± 1.45 %ID/g
  tissue uptake at 48 h: 4.32 ± 0.75 %ID/g
  tissue uptake at 72 h: 2.01 ± 0.47 %ID/g
  tissue uptake at 96 h: 1.1 ± 0.04 %ID/g
